The text below walks through data of patent US20150065509A1 (priority 2012, published 2015).

The structures appear in SMILES notation. Values after ≈ are worked out from the molar mass of the structure shown. Read-outs that look alike come from different tables or passages of the source.

For data set [1], the system named is B. anthracis Sterne. The data set is described as follows: microbe, parasite or virus in culture. In kind it is cell-based. The conditions noted are these: for MIC: Bacillus anthracis, 16 h, read-out: MIC (Minimum Inhibitory Concentration).
Data set [2] deals with dihydrofolate reductase (DHFR) (Bacillus anthracis, UniProt Q81R22). The data set is described as follows: biochemical. It is filed as biochemical, B. anthracis Sterne.
dihydrofolate reductase (DHFR), sequence (Q81R22 1-162): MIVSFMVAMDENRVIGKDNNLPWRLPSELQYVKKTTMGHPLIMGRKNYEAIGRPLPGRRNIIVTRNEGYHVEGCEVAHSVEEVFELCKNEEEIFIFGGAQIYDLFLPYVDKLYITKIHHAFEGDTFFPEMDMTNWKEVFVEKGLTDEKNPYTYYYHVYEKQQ

Turning to `CCCC1c2ccccc2C=NN1C(=O)/C=C/c1cc(Cc2c(N)nc(N)nc2CC)cc(OC)c1OC` (centres unmarked) [Compound 11, (E)-3-(5-((2,4-Diamino-6-ethylpyrimidin-5-yl)methyl)-2,3-dimethoxyphenyl)-1-(propyl-phthalazin-2(1H)-yl)prop-2-en-1-one], the “MIC (Minimum Inhibitory Concentration)” value in data set [1] turned out to be 4000 µg/mL (≈ 7.77 mM). Besides, the IC50 in data set [2] (read-out: IC50) was determined as 17.4 µM.
For `CCCc1nc(N)nc(N)c1Cc1cc(/C=C/C(=O)N2N=Cc3ccccc3C2C=C(C)C)c(OC)c(OC)c1` (centres unmarked) [Compound 15, (E)-3-(5-((2,4-Diamino-6-propylpyrimidin-5-yl)methyl)-2,3-dimethoxyphenyl)-1-(isobutenylphthalazin-2(1H)-yl)prop-2-en-1-one] the same measures were 2000 µg/mL (≈ 3.7 mM) and 18 µM.
As to `CCCC1c2ccccc2C=NN1C(=O)/C=C/c1cc(Cc2c(C)nc(N)nc2N)cc(OC)c1OC` (centres unmarked) [Compound 10, (E)-3-(5-((2,4-Diamino-6-methylpyrimidin-5-yl)methyl)-2,3-dimethoxyphenyl)-1-(1-propyl-phthalazin-2(1H)-yl)prop-2-en-1-one], the melting point is 137 to 138 °C. In data set [1], the MIC worked out at 8000 µg/mL (≈ 16 mM). In addition, the IC50 in data set [2] was 0.517 µM.
In the case of `CCc1nc(N)nc(N)c1Cc1cc(/C=C/C(=O)N2N=Cc3ccccc3C2C=C(C)C)c(OC)c(OC)c1` (centres unmarked) [Compound 14, (E)-3-(5-((2,4-Diamino-6-ethylpyrimidin-5-yl)methyl)-2,3-dimethoxyphenyl)-1-(isobutenylphthalazin-2(1H)-yl)prop-2-en-1-one], the “MIC (Minimum Inhibitory Concentration)” value in data set [1] amounted to 4000 µg/mL (≈ 7.6 mM). The concentration for half-maximal inhibition (IC50) in data set [2] (read-out: IC50) is 0.181 µM.
Compound `CCCc1nc(N)nc(N)c1Cc1cc(/C=C/C(=O)N2N=Cc3ccccc3C2CCC)c(OC)c(OC)c1` (centres unmarked) [Compound 12, (E)-3-(5-((2,4-Diamino-6-propylpyrimidin-5-yl)methyl)-2,3-dimethoxyphenyl)-1-(1-propyl-phthalazin-2(1H)-yl)prop-2-en-1-one] came in with a melting point of 140 to 141 °C. Besides, the MIC in data set [1] is 1000 µg/mL (≈ 1.89 mM). Besides, the 50% inhibitory concentration (IC50) in data set [2] stood at 17.1 µM.
Regarding `COc1cc(Cc2c(C)nc(N)nc2N)cc(/C=C/C(=O)N2N=Cc3ccccc3C2C=C(C)C)c1OC` (centres unmarked) [Compound 13, (E)-3-(5-((2,4-Diamino-6-methylpyrimidin-5-yl)methyl)-2,3-dimethoxyphenyl)-1-(isobutenylphthalazin-2(1H)-yl)prop-2-en-1-one], in data set [1], the “MIC (Minimum Inhibitory Concentration)” value was found to be 4000 µg/mL (≈ 7.8 mM). Moreover, the IC50 in data set [2] (read-out: IC50) was 0.102 µM.
